In ChEMBL document CHEMBL3885861, “Open TG-GATES”:

Organism: Rattus norvegicus
Assay: Open TG-GATES - Regimen: Single
Type: toxicity, organism-based, Sprague-Dawley
Design: regimen Single, gender Male, age 6 weeks
Conditions: in vivo, po, 0 mg/kg, route gavage, dose level Control; for APTT / Bas / Eos / Fbg / Hb / Ht / Lym / MCH / MCHC / MCV / Mono / Neu / PT / Plat / RBC / Ret / WBC: tissue Blood; for KIDNEY_L / KIDNEY_R / KIDNEY_TOTAL: tissue Kidney; for LIVER: tissue Liver; for A/G / ALP / ALT / AST / BUN / CRE / Ca / Cl / DBIL / GLC / IP / K / LDH / Na / PL / RALB / TBIL / TC / TG / TP / gamma-GTP: tissue Plasma

SMILES: O=C(OC[C@H]1O[C@@H](OC(=O)c2cc(O)c(O)c(OC(=O)c3cc(O)c(O)c(O)c3)c2)[C@H](OC(=O)c2cc(O)c(O)c(OC(=O)c3cc(O)c(O)c(O)c3)c2)[C@@H](OC(=O)c2cc(O)c(O)c(OC(=O)c3cc(O)c(O)c(O)c3)c2)[C@@H]1OC(=O)c1cc(O)c(O)c(OC(=O)c2cc(O)c(O)c(O)c2)c1)c1cc(O)c(O)c(OC(=O)c2cc(O)c(O)c(O)c2)c1 [TANNIC ACID]
- TERMINAL_BW (3 h): 189.9 g
- APTT (3 h): 16.1 s
- Bas (3 h): 0%
- Eos (3 h): 0.6%
- Fbg (3 h): 216.2 mg/dL
- Hb (3 h): 12.9 g/dL
- Ht (3 h): 38.5%
- Lym (3 h): 79.4%
- MCH (3 h): 22.6 pg
- MCHC (3 h): 33.6%
- MCV (3 h): 67.3 fL
- Mono (3 h): 5%
- Neu (3 h): 15.2%
- PT (3 h): 11.7 s
- Plat (3 h): 106.7 x10_4/uL
- RBC (3 h): 573 x10_4/ul
- Ret (3 h): 10.3%
- WBC (3 h): 111 x10_2/uL
- KIDNEY_L (3 h): 0.9 g
- KIDNEY_R (3 h): 0.9 g
- KIDNEY_TOTAL (3 h): 1.8 g
- LIVER (3 h): 9.5 g
- A/G (3 h): 2.1
- ALP (3 h): 747.6 IU/L
- ALT (3 h): 34.4 IU/L
- AST (3 h): 68 IU/L
- BUN (3 h): 17 mg/dL
- CRE (3 h): 0.4 mg/dL
- Ca (3 h): 11 mg/dL
- Cl (3 h): 103.2 meq/L
- DBIL (3 h): 0.016 mg/dL
- GLC (3 h): 194.4 mg/dL
- IP (3 h): 10.3 mg/dL
- K (3 h): 4.8 meq/L
- LDH (3 h): 74.4 IU/L
- Na (3 h): 139.4 meq/L
- PL (3 h): 141.4 mg/dL
- RALB (3 h): 3.6 g/dL
- TBIL (3 h): 0.5 mg/dL
- TC (3 h): 74.8 mg/dL
- TG (3 h): 70.6 mg/dL
- TP (3 h): 5.4 g/dL
- gamma-GTP (3 h): 1.4 IU/L
- TERMINAL_BW (6 h): 186.3 g
- APTT (6 h): 15.9 s
- Bas (6 h): 0%
- Eos (6 h): 0.8%
- Fbg (6 h): 227 mg/dL
- Hb (6 h): 13.1 g/dL
- Ht (6 h): 39.1%
- Lym (6 h): 75.2%
- MCH (6 h): 22.1 pg
- MCHC (6 h): 33.6%
- MCV (6 h): 65.6 fL
- Mono (6 h): 7.8%
- Neu (6 h): 16.4%
- PT (6 h): 12.1 s
- Plat (6 h): 117.4 x10_4/uL
- RBC (6 h): 596 x10_4/ul
- Ret (6 h): 10.1%
- WBC (6 h): 109.6 x10_2/uL
- KIDNEY_L (6 h): 0.9 g
- KIDNEY_R (6 h): 0.9 g
- KIDNEY_TOTAL (6 h): 1.8 g
- LIVER (6 h): 8.6 g
- A/G (6 h): 2
- ALP (6 h): 831.4 IU/L
- ALT (6 h): 34.4 IU/L
- AST (6 h): 61.8 IU/L
- BUN (6 h): 11.2 mg/dL
- CRE (6 h): 0.5 mg/dL
- Ca (6 h): 10.8 mg/dL
- Cl (6 h): 105.2 meq/L
- DBIL (6 h): 0.028 mg/dL
- GLC (6 h): 188 mg/dL
- IP (6 h): 10.1 mg/dL
- K (6 h): 4.7 meq/L
- LDH (6 h): 83 IU/L
- Na (6 h): 139.4 meq/L
- PL (6 h): 131.8 mg/dL
- RALB (6 h): 3.6 g/dL
- TBIL (6 h): 0.4 mg/dL
- TC (6 h): 79.2 mg/dL
- TG (6 h): 40.6 mg/dL
- TP (6 h): 5.4 g/dL
- gamma-GTP (6 h): 2.2 IU/L
- TERMINAL_BW (9 h): 184.6 g
- APTT (9 h): 16.7 s
- Bas (9 h): 0%
- Eos (9 h): 1.2%
- Fbg (9 h): 213 mg/dL
- Hb (9 h): 12.9 g/dL
- Ht (9 h): 38.4%
- Lym (9 h): 76.8%
- MCH (9 h): 22.2 pg
- MCHC (9 h): 33.6%
- MCV (9 h): 65.9 fL
- Mono (9 h): 8%
- Neu (9 h): 14.4%
- PT (9 h): 12.1 s
- Plat (9 h): 123.3 x10_4/uL
- RBC (9 h): 583.4 x10_4/ul
- Ret (9 h): 10.2%
- WBC (9 h): 92.1 x10_2/uL
- KIDNEY_L (9 h): 0.9 g
- KIDNEY_R (9 h): 0.9 g
- KIDNEY_TOTAL (9 h): 1.7 g
- LIVER (9 h): 7.7 g
- A/G (9 h): 1.9
- ALP (9 h): 669.8 IU/L
- ALT (9 h): 34.4 IU/L
- AST (9 h): 60 IU/L
- BUN (9 h): 12.8 mg/dL
- CRE (9 h): 0.4 mg/dL
- Ca (9 h): 10.5 mg/dL
- Cl (9 h): 105.4 meq/L
- DBIL (9 h): 0.062 mg/dL
- GLC (9 h): 195.8 mg/dL
- IP (9 h): 10.8 mg/dL
- K (9 h): 4.9 meq/L
- LDH (9 h): 72.2 IU/L
- Na (9 h): 137 meq/L
- PL (9 h): 138.6 mg/dL
- RALB (9 h): 3.6 g/dL
- TBIL (9 h): 0.4 mg/dL
- TC (9 h): 81.4 mg/dL
- TG (9 h): 35.2 mg/dL
- TP (9 h): 5.5 g/dL
- gamma-GTP (9 h): 2.6 IU/L
- TERMINAL_BW (24 h): 197.9 g
- APTT (24 h): 16.7 s
- Bas (24 h): 0%
- Eos (24 h): 1.2%
- Fbg (24 h): 218.4 mg/dL
- Hb (24 h): 12.5 g/dL
- Ht (24 h): 37.6%
- Lym (24 h): 79.6%
- MCH (24 h): 22 pg
- MCHC (24 h): 33.3%
- MCV (24 h): 66.1 fL
- Mono (24 h): 6%
- Neu (24 h): 13.6%
- PT (24 h): 11.8 s
- Plat (24 h): 110.9 x10_4/uL
- RBC (24 h): 568.6 x10_4/ul
- Ret (24 h): 9.9%
- WBC (24 h): 98.7 x10_2/uL
- KIDNEY_L (24 h): 0.9 g
- KIDNEY_R (24 h): 0.9 g
- KIDNEY_TOTAL (24 h): 1.8 g
- LIVER (24 h): 9.4 g
- A/G (24 h): 2.1
- ALP (24 h): 821.8 IU/L
- ALT (24 h): 41 IU/L
- AST (24 h): 66.6 IU/L
- BUN (24 h): 18.2 mg/dL
- CRE (24 h): 0.5 mg/dL
- Ca (24 h): 10.8 mg/dL
- Cl (24 h): 103.8 meq/L
- DBIL (24 h): 0.004 mg/dL
- GLC (24 h): 190.6 mg/dL
- IP (24 h): 8.7 mg/dL
- K (24 h): 4.7 meq/L
- LDH (24 h): 97 IU/L
- Na (24 h): 138.2 meq/L
- PL (24 h): 144.2 mg/dL
- RALB (24 h): 3.7 g/dL
- TBIL (24 h): 0.4 mg/dL
- TC (24 h): 80.6 mg/dL
- TG (24 h): 77.2 mg/dL
- TP (24 h): 5.5 g/dL
- gamma-GTP (24 h): 1.4 IU/L
